Tests used:
Assay type in all cases: cell-based, human
Caco-2 cells = assay: MTT viability assay, colorectal cancer cells Caco-2; conditions: for SI, Caco-2: CC50 CCD 841 CoTr / CC50 Caco-2; for CC50: Homo sapiens, Caco-2, MTT, 24 h, read-out: CC50 ± SD, Caco-2
Procedure: (§1) The cytotoxic effects of ten newly synthesized N-Mannich bases were assessed on the normal human intestinal epithelium (CCD 841 CoTr) and cancer cell lines: gastric cancer (EPG) and four colorectal cancer lines (Caco-2, LoVo, LoVo/Dx, and HT-29). Cell viability was evaluated using the MTT assay in accordance with Annex C of ISO 10993-5 [33].
(§2) The biological activity of the newly synthesized compounds was assessed in the context of anticancer activity. For this purpose, several gastrointestinal cancer lines were selected: gastric cancer (EPG 257, which belongs to the collection of the Laboratory of Cell Culture and Advanced Therapy at the University of Environmental and Life Sciences in Wrocław), and four colorectal cancer cell lines (LoVo, Caco-2, and HT-29) were obtained from the European Collection of Authenticated Cell Cultures (ECACC) and were delivered by Sigma-Aldrich, a certified distributor for the biobank. Additionally, LoVo cells were used to develop a doxorubicin-resistant subline, referred to as LoVo/Dx. Resistance was induced through gradual adaptation to increasing concentrations of doxorubicin, starting from 0.1 µg/mL and incrementally raised to 0.8 µg/mL. After reaching the maximum concentration, the cells were maintained in a medium containing 0.4 µg/mL doxorubicin for a period of three months to stabilize the resistant phenotype. […] The resulting LoVo/Dx subline, resistant to doxorubicin, was cultured in DMEM/F-12 medium and utilized in assays evaluating the effectiveness of novel compounds against multidrug-resistant cancer cells. […] The non-cancerous cell control was normal colonic epithelial cells (CCD 841 CoTr from American Type Culture Collection, (ATCC, Manassas, VA, USA)). Cell cultures were performed under standard conditions (5% CO2, 95% humidity, and 37 °C). Each cell line was cultured in the recommended medium: (1) HT-29 in McCoy’s 5a, (2) Caco-2 in Minimal Essential Medium (MEM, Biological Industries, Beit Haemek, Israel), (3) CCD 841 CoTr in Dulbecco’s Modified Eagle Medium (DMEM, Biological Industries, Beit Haemek, Israel), (4) LoVo in Dulbecco’s Modified Eagle Medium/F-12 (DMEM/F-12; Biological Industries, Beit Haemek, Israel), (5) LoVo/Dx in DMEM/F-12, and (6) EPG in DMEM. Culture media were supplemented with 10% fetal bovine serum (FBS, Sigma-Aldrich, Darmstadt, Germany) and antibiotics (penicillin and streptomycin; Sigma-Aldrich, Darmstadt, Germany). For assays, trypsinized (TrypLE solution, Thermo Fisher Scientific, Waltham, MA, USA) cells were seeded at appropriate densities of 10,000 cells per well for MTT and determination of apoptotic and necrotic cell numbers; 30,000 cells per well for the rhodamine accumulation assay; and 500,000 cells per well for ELISA tests.
(§3) The cytotoxicity of the compounds and drugs used as controls was assessed using the MTT assay. The assay also included a DMSO control. After seeding and allowing the cells to adhere overnight, they were treated with the tested compounds and drugs for another 24 h. After this time, the supernatant was removed, and a 1 mg/mL MTT solution was added for 2 h in 5% CO2, 95% humidity, at 37 °C. The supernatant was then removed, and isopropanol was added to dissolve the purple crystals over 30 min by shaking. Absorbance was measured at 570 nm in a Multiskan GO microplate reader (Thermo Fisher Scientific; Waltham, MA, USA). All reagents used for the assays were purchased from Sigma-Aldrich, Darmstadt, Germany.
(§4) Biological assays were performed in three independent replicates, each involving four samples. ELISA determinations were repeated three times.

HT-29 cells [1] = assay: Annexin-V/propidium iodide apoptosis and necrosis detection; conditions: HT-29, 1 µM, 24 h
Procedure: To evaluate the impact of new compounds on apoptosis induction, an annexin-V/propidium iodide staining assay was conducted on HT-29 cells, with doxorubicin serving as the positive control (Figure 4). The tested compounds 5 and 6, at a concentration of 1 µM, increased the number of cells in the apoptosis phase, although to a lesser extent than doxorubicin.
The assessment of cell death—apoptosis was performed after 24 h of incubation of HT-29 cells with a concentration of 1 µM of compounds 5 and 6 and doxorubicin. Fluorescein-conjugated annexin V in PBS with Mg^2+ and Ca^2+ ions (Thermo Fisher Scientific, Waltham, MA, USA) was then used. To ensure that all cells (both live and dead) were counted, 10 µM Hoechst (Sigma-Aldrich, Darmstadt, Germany) was added to stain cell nuclei. The culture was then incubated for 20 min at 37 °C. Apoptosis analysis was performed under a fluorescence microscope (EVOS FL, Thermo Fisher Scientific, Waltham, MA, USA), using 10× magnification, in triplicate for each compound. The open-source ImageJ platform with the Fiji plugin [57] was used to analyze the number of all cells, as well as those in the apoptotic and necrotic phases.
The fluorescence signal was interpreted as follows: green fluorescence indicated apoptotic cells (annexin V staining), red fluorescence corresponded to necrotic cells, and blue fluorescence (Hoechst staining) marked all cell nuclei.

[2] = MTT viability assay, normal colonic epithelial cells; conditions: human, CCD 841 CoTr normal colonic epithelial cells, Non-toxic = no toxicity in tested range 1–500 μM, read-out: CC50 ± SD, CCD 841 CoTr
Procedure: as §1, §2, §3, §4

HT-29 cells [3] = assay: MTT viability assay, colorectal cancer cells HT-29; conditions: for SI, HT-29: CC50 CCD 841 CoTr / CC50 HT-29; for CC50: Homo sapiens, HT-29, MTT, 24 h, read-out: CC50 ± SD, HT-29
Procedure: as §1, §2, §3, §4

Row | SMILES | SI, Caco-2 (Caco-2 cells) | CC50 (Caco-2 cells) [µM] | Increase in apoptotic cells compared to untreated cells (HT-29 cells [1]) [fold] | Number of necrotic cells (HT-29 cells [1]) | CC50 at 24 h [2] [µM] | SI, HT-29 (HT-29 cells [3]) | CC50 (HT-29 cells [3]) [µM]
1 | Cc1cc(C)c(C(=O)NCc2nn(CN3CCN(c4cccc(Cl)c4)CC3)c(=S)n2-c2ccccc2)c(S)n1 [Compound 5, 4,6-dimethyl-N-[(4-phenyl-5-thioxo-2-{[4-(3-chlorophenyl)piperazinyl]methyl}-4,5-dihydro-1H-1,2,4-triazol-3-yl)methyl]-2-sulfanylpyridine-3-carboxamide] | 0.97 | 228 ± 5.2 | > 3.5 | significant rise | 221 ± 2.4 | 2.15 | 102 ± 2.7
2 | Cc1ccc(N2CCN(Cn3nc(CNC(=O)c4c(C)cc(C)nc4S)n(-c4ccccc4)c3=S)CC2)cc1 [Compound 6] | 5.16 | 75.1 ± 5.1 | ~5 | – | 388 ± 6.5 | 3.16 | 123 ± 3.9
